# Reference: patent US11844776B2, “Composition for treatment and/or prevention of peripheral nerve disorder” (OSAKA CITY UNIVERSITY, priority 2016, dated 2023)
# How the values were obtained:
# [1] = biological target: m-calpain (derived from porcine kidney) (Sus scrofa, UniProt P43367); assay: Measurement of inhibitory activity against m-calpain; assay type: biochemical; settings: casein substrate, pH 7.4, 30° C. for 60 minutes; read-out: Enzyme inhibitory activity m-Calpain (IC50)
# Chain of m-calpain (derived from porcine kidney) (P43367 whole entry): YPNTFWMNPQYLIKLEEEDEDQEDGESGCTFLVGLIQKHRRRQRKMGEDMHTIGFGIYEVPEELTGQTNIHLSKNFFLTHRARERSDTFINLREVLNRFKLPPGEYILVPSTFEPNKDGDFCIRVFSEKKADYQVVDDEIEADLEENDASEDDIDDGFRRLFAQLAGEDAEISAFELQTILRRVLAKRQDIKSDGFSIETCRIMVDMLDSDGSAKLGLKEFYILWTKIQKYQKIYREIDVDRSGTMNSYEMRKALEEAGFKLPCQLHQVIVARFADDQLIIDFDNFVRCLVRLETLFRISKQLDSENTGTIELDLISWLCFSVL
# Chain of m-calpain (derived from porcine kidney) (P04574 whole entry, further chain): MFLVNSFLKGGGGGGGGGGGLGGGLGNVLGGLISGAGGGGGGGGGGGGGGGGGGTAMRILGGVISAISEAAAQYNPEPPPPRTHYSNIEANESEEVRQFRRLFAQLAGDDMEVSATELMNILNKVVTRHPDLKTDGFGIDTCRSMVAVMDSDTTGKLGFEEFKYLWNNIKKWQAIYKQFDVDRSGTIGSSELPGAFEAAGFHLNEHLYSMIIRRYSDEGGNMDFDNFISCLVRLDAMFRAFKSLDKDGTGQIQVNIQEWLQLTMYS
Compound,melting point [°C],IC50 [1] [nM]
"CCNC(=O)C(=O)[C@H](Cc1ccccc1)NC(=O)[C@H](CC(C)C)NC(=O)OCCOC [Compound 1, ((1S)-1-((((1S)-1-Benzyl-2,3-dioxo-3-(ethylamino)propyl)amino)carbonyl)-3-methylbutyl) carbamic acid 2-methoxyethyl ester]",138 to 138.3,
"CCNC(=O)C(=O)[C@H](Cc1ccccc1)NC(=O)[C@H](CC(C)C)NC(=O)O[C@H]1CCOC1 [Compound 2, ((1S)-1-((((1S)-1-Benzyl-2,3-dioxo-3-(ethylamino)propyl)amino)carbonyl)-3-methylbutyl)carbamic acid (3S)-tetrahydrofuran-3-yl ester]",158.9 to 160.7,
"CCNC(=O)C(=O)[C@H](Cc1ccccc1)NC(=O)[C@H](CC(C)C)NC(=O)OC1CCOCC1 [Compound 3, ((1S)-1-((((1S)-1-Benzyl-2,3-dioxo-3-(ethylamino)propyl)amino)carbonyl)-3-methylbutyl)carbamic acid tetrahydro-4H-pyran-4-yl ester]",140 to 141.8,
"COCCOC(=O)N[C@@H](CC(C)C)C(=O)N[C@@H](Cc1ccccc1)C(=O)C(=O)NC1CC1 [Compound 4, ((1S)-1-((((1S)-1-Benzyl-2,3-dioxo-3-(cyclopropylamino)propyl)amino)carbonyl)-3-methylbutyl)carbamic acid 2-methoxyethyl ester]",112.4 to 113.5,
"CC(C)C[C@H](NC(=O)O[C@H]1CCOC1)C(=O)N[C@@H](Cc1ccccc1)C(=O)C(=O)NC1CC1 [Compound 5, ((1S)-1-((((1S)-1-Benzyl-3-(cyclopropylamino)-2,3-dioxopropyl)amino)carbonyl)-3-methylbutyl)carbamic acid (3S)-tetrahydrofuran-3-yl ester]",169.2 to 170.5,
"CC(C)C[C@H](NC(=O)OC1CCOCC1)C(=O)N[C@@H](Cc1ccccc1)C(=O)C(=O)NC1CC1 [Compound 6, ((1S)-1-((((1S)-1-Benzyl-3-cyclopropylamino-2,3-dioxopropyl)amino)carbonyl)-3-methylbutyl)carbamic acid tetrahydro-4H-pyran-4-yl ester]",137 to 138.2,
"COCCOCCOCCOCCOC(=O)N[C@@H](CC(C)C)C(=O)N[C@@H](Cc1ccccc1)C(=O)C(=O)NC1CC1 [Compound 19, ((1S)-1-((((1S)-1-Benzyl-2,3-dioxo-3-(cyclopropylamino)propyl)amino)carbonyl)-3-methylbutyl)carbamic acid 11-methoxy-3,6,9-trioxaundecanyl ester]",97.5 to 98.5,170
"COCCOCCOCCOCCOCCOC(=O)N[C@@H](CC(C)C)C(=O)N[C@@H](Cc1ccccc1)C(=O)C(=O)NC1CC1 [Compound 20, ((1S)-1-((((1S)-1-Benzyl-2,3-dioxo-3-(cyclopropylamino)propyl)amino)carbonyl)-3-methylbutyl)carbamic acid 14-methoxy-3,6,9,12-tetraoxatetradecanyl ester]",98.5 to 99.9,190

# Now from value to molecule, other results behind:
melting point [°C],Compound,IC50 [1] [nM]
108.8 to 109.9,"CCCNC(=O)C(=O)[C@H](Cc1ccccc1)NC(=O)[C@H](CC(C)C)NC(=O)OCCOC [Compound 7, ((1S)-1-((((1S)-1-Benzyl-2,3-dioxo-3-(propylamino)propyl)amino)carbonyl)-3-methylbutyl) carbamic acid 2-methoxyethyl ester]",
114.2 to 115.3,"COCCOC(=O)N[C@@H](CC(C)C)C(=O)N[C@@H](Cc1ccccc1)C(=O)C(=O)NC1CCC1 [Compound 8, ((1S)-1-((((1S)-1-Benzyl-2,3-dioxo-3-(cyclobutylamino)propyl)amino)carbonyl)-3-methylbutyl) carbamic acid 2-methoxyethyl ester]",
94 to 95.2,"CCCCNC(=O)C(=O)[C@H](Cc1ccccc1)NC(=O)[C@H](CC(C)C)NC(=O)OCCOC [Compound 9, ((1S)-1-((((1S)-1-Benzyl-3-butylamino-2,3-dioxopropyl)amino)carbonyl)-3-methylbutyl) carbamic acid 2-methoxyethyl ester]",
152.5 to 153.9,"COCCOC(=O)N[C@@H](CC(C)C)C(=O)N[C@@H](Cc1ccccc1)C(=O)C(=O)NCC(F)(F)F [Compound 10, ((1S)-1-((((1S)-1-Benzyl-2,3-dioxo-3-(2,2,2-trifluoroethylamino)propyl)amino)carbonyl)-3-methylbutyl) carbamic acid 2-methoxyethyl ester]",
141.9 to 143.5,"COCCOC(=O)N[C@@H](CC(C)C)C(=O)N[C@@H](Cc1ccccc1)C(=O)C(=O)NC1Cc2ccccc2C1 [Compound 11, ((1S)-1-((((1S)-1-Benzyl-2,3-dioxo-3-(2-indanylamino)propyl)amino)carbonyl)-3-methylbutyl)carbamic acid 2-methoxyethyl ester]",
127 to 127.9,"COCCNC(=O)C(=O)[C@H](Cc1ccccc1)NC(=O)[C@H](CC(C)C)NC(=O)OCCOC [Compound 12, ((1S)-1-((((1S)-1-Benzyl-2,3-dioxo-3-(2-methoxyethylamino)propyl)amino)carbonyl)-3-methylbutyl) carbamic acid 2-methoxyethyl ester]",
119.1 to 120.4,"CCNC(=O)C(=O)[C@H](CCc1ccccc1)NC(=O)[C@H](CC(C)C)NC(=O)OCCOC [Compound 13, ((1S)-1-((((1S)-2,3-Dioxo-3-ethylamino-1-(phenylethyl)propyl)amino)carbonyl)-3-methylbutyl)carbamic acid 2-methoxyethyl ester]",
111.9 to 114.5,"CCNC(=O)C(=O)[C@H](CCc1ccccc1)NC(=O)[C@H](CC(C)C)NC(=O)O[C@H]1CCOC1 [Compound 14, ((1S)-1-((((1S)-2,3-Dioxo-3-ethylamino-1-(phenylethyl)propyl)amino)carbonyl)-3-methylbutyl)carbamic acid (3S)-tetrahydrofuran-3-yl ester]",
109.7 to 111.1,"COCCOC(=O)N[C@@H](CC(C)C)C(=O)N[C@@H](CCc1ccccc1)C(=O)C(=O)NC1CC1 [Compound 15, ((1S)-1-((((1S)-2,3-Dioxo-3-cyclopropylamino-1-(phenylethyl)propyl)amino)carbonyl)-3-methylbutyl)carbamic acid 2-methoxyethyl ester]",
115.8 to 116.2,CC(C)C[C@H](NC(=O)O[C@H]1CCOC1)C(=O)N[C@@H](CCc1ccccc1)C(=O)C(=O)NC1CC1 [Compound 16],
99.7 to 100.5,"COCCOC(=O)N[C@@H](CC(C)C)C(=O)N[C@@H](CC(C)C)C(=O)C(=O)NCCOc1ccccc1 [Compound 21, ((1S)-1-((((1S)-2,3-Dioxo-1-(2-methylpropyl)-3-(2-phenoxyethyl)aminopropyl)amino)carbonyl)-3-methylbutyl) carbamic acid 2-methoxyethyl ester]",
53.3 to 54.1,"COCCOCCOC(=O)N[C@@H](CC(C)C)C(=O)N[C@@H](CC(C)C)C(=O)C(=O)NCCOc1ccccc1 [Compound 22, ((1S)-1-((((1S)-2,3-Dioxo-1-(2-methylpropyl)-3-(2-phenoxyethyl)aminopropyl)amino)carbonyl)-3-methylbutyl) carbamic acid 5-methoxy-3-oxapentyl ester]",
